Laboratory results reported in ChEMBL document CHEMBL1131909, “Synthesis and biological activities of position one and three transposed analogs of the opioid peptide YKFA” (Bioorg Med Chem Lett, 1999).

Tests used:
[1] = target: T1, Mu-type opioid receptor (Cavia porcellus, UniProt P97266); test: In vitro mu opioid activity was determined by its ability to inhibit the electrically induced contractions of smooth muscle preparations in guinea pig ileum (GPI); assay type: functional, tissue-based
[2] = target: Delta-type opioid receptor (Mus musculus, UniProt P32300); test: In vitro delta opioid activity was determined by its ability to inhibit the electrically induced contractions of smooth muscle preparations in mouse vas deferens (MVD); assay type: functional, tissue-based
[3] = target: Mu-type opioid receptor (Homo sapiens, UniProt P35372); test: Compound was tested for binding affinity against mu opioid receptor binding assay
[4] = target: T1, Mu-type opioid receptor; test: Compound was tested for its ability to activate mu opioid receptor in GPI bioassay
[5] = target: T1, Mu-type opioid receptor; test: Compound was tested for moderate potency against mu opioid receptor in guinea pig ileum; assay type: tissue-based

Sequence of Delta-type opioid receptor (P32300 whole entry): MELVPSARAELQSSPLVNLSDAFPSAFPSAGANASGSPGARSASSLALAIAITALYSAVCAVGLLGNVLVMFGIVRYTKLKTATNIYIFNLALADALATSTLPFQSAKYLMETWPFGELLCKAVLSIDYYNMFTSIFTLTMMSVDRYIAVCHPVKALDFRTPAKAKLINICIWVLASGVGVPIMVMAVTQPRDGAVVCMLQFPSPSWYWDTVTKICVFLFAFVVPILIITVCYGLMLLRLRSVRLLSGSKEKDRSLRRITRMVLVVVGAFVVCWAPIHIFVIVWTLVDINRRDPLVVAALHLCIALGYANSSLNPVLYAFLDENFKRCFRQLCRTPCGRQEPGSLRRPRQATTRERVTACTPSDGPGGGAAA
T1 sequence (P97266 whole entry): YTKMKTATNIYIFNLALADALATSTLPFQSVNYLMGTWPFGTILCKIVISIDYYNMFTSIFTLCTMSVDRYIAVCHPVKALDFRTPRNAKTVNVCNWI
Sequence of Mu-type opioid receptor (Homo sapiens, UniProt P35372) (P35372 whole entry): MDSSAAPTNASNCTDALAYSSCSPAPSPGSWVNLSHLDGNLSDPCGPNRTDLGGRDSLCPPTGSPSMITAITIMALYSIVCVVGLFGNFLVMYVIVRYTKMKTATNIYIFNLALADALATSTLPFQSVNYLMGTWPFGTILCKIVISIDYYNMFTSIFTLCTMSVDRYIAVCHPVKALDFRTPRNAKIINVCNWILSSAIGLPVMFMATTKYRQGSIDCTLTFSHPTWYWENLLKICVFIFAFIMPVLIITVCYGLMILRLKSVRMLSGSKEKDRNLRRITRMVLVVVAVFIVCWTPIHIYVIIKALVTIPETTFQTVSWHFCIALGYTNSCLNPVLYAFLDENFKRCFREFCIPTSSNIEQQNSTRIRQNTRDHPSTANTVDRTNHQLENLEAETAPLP

Compound	IC50 [1] [nM]	IC50 [2] [nM]	other results
N[C@H](Cc1ccccc1)C(=O)N[C@@H]1CCCCNC(=O)[C@H](Cc2cc3ccccc3[nH]2)NC(=O)[C@H](Cc2ccc(O)cc2)NC1=O	627	8130	–
CC1(C)SSC[C@@H](NC(=O)[C@@H](N)Cc2ccccc2)C(=O)N[C@@H](Cc2ccccc2)C(=O)N[C@H]1C(N)=O	–	–	Ki [3]: 13.6 nM; IC50 [4]: 9.1 nM
NC(=O)[C@H]1CSSC[C@@H](NC(=O)[C@@H](N)Cc2ccccc2)C(=O)NCC(=O)N[C@@H](Cc2ccccc2)C(=O)N1	–	–	IC50 [5]: 42 nM
N[C@@H](Cc1ccccc1)C(=O)N[C@@H]1CCCCNC(=O)[C@H](Cc2cc3ccccc3[nH]2)NC(=O)[C@H](Cc2ccc(O)cc2)NC1=O	17.7	228	–
NC(=O)[C@H]1CSSC[C@@H](NC(=O)[C@@H](N)Cc2ccccc2)C(=O)NCC(=O)N[C@@H](Cc2ccc([N+](=O)[O-])cc2)C(=O)N1	–	–	IC50 [5]: 13 nM
CC1(C)SSC[C@@H](NC(=O)[C@@H](N)Cc2ccc(O)cc2)C(=O)N[C@@H](Cc2ccccc2)C(=O)N[C@H]1C(N)=O	–	–	Ki [3]: 0.29 nM
CC1NC(=O)[C@H](Cc2ccccc2)NC(=O)[C@H](NC(=O)[C@@H](N)Cc2ccc(O)cc2)CCCCNC1=O (single isomer, unassigned)	0.11	0.54	–
CC1NC(=O)[C@H](Cc2ccc(O)cc2)NC(=O)[C@H](NC(=O)[C@@H](N)Cc2ccccc2)CCCCNC1=O (single isomer, unassigned)	30.4	367	–
CC1NC(=O)[C@H](Cc2ccc(O)cc2)NC(=O)[C@H](NC(=O)[C@H](N)Cc2ccccc2)CCCCNC1=O (single isomer, unassigned)	1830	9330	–
